Assays:
Type in all cases: cell-based, human
[1] = system: tumor-infiltrating lymphocytes (TIL); assay: Functional characteristics of final TIL product expanded with AKTi; conditions: AKTi treatment during ex vivo expansion
Description: (§1) Patient tumors from different indications were received, fragmented, and subjected to an expansion protocol for TIL manufacturing. Different doses (0.3 μM and 1 μM) of the pan-AKT inhibitor (AKTi) ipatasertib were added to the culture during ex vivo expansion. The expansion potential, as well as the phenotypic and functional characteristics of TIL were evaluated on the final TIL product.

[2] = system: tumor-infiltrating lymphocytes (TIL); assay: TIL ex vivo expansion with AKTi ipatasertib: expansion and viability; conditions: AKTi 1 μM during ex vivo expansion
Description: as §1

[3] = system: tumor-infiltrating lymphocytes (TIL); assay: Phenotypic characteristics of final TIL product expanded with AKTi; conditions: AKTi 1 μM
Description: as §1

In the case of `CC(C)NC[C@@H](C(=O)N1CCN(c2ncnc3c2[C@H](C)C[C@H]3O)CC1)c1ccc(Cl)cc1` [AKTi, ipatasertib], the cytotoxicity [1] is reported as “increased”, the “frequency of IFNγ+TNFα+CD8+ T cells” value [1] is reported as “increase” and the “expansion of TIL relative to control” value [2] is reported as “equivalent”. For the same compound, the “viability of TIL relative to control” value [2] was “equivalent”, the “expression of CD38 and the transcription factors T-bet and Tox” value ([3]; CD39-CD69- cells) was “reduced” and the “population of less differentiated CD39-CD69- cells” value ([3]; present even after re-stimulation) was “doubled”.

From patent US20250000903A1, “EXPANSION PROCESSES AND AGENTS FOR TUMOR INFILTRATING LYMPHOCYTES” (Iovance Biotherapeutics, Inc., priority 2021, published 2025)
